Values of other authors, collected in patent publication US20040209811A1, “Oral prohylactic agent against viral infection” (Chuang-Chun Chiueh, priority 2003, published 2004).

What was measured:
enterovirus = conditions: full prevention of infection; protected cells from viral invasion and pathological changes
cells = conditions: at >0.3 μM concentration

For phycocyanin, the “concentration found to prevent the infection of influenza viruses” value (influenza viruses) is listed as over 0.04 µM, the “concentration that could fully prevent enteroviral infection” value (enterovirus) is listed as over 0.3 µM and the toxicity to cells (cells) is listed as “non-toxic to cells”.
